Experimental data reported in patent publication US9512075B2 (OKAYAMA UNIVERSITY, priority 2012, dated 2016).
Values after ≈ are worked out from the molar mass of the structure shown. Read-outs that look alike come from different tables or passages of the source.

Columns and labels:
Type in all cases: cell-based
[1] = system: Clostridium difficile JCM1296 strain; test: microbe, parasite or virus in culture; conditions: Clostridioides difficile, JCM1296, read-out: MIC Clostridium difficile JCM1296
[2] = system: Staphylococcus aureus MRSA No. 17 (methicillin-resistant Staphylococcus aureus: MRSA); test: MIC for Staphylococcus aureus MRSA No. 17; conditions: read-out: MIC Straphyrococcus aureus MRSA No. 17 (MRSA)
[3] = system: Staphylococcus aureus 209P strain; test: MIC for Staphylococcus aureus 209P strain; conditions: Staphylococcus aureus, read-out: MIC Straphyrococcus aureus 209P
[4] = system: Clostridium perfringens PB6K strain; test: microbe, parasite or virus in culture; conditions: Clostridium perfringens, PB6KSTRAIN, read-out: MIC Clostridium perfringens PB6K, PB6K strain; CD medium, 37° C. overnight, 10% CO2-containing anaerobic conditions
[5] = system: Escherichia coli BE1121 strain; test: MIC for Escherichia coli BE1121 strain; conditions: Escherichia coli, BE1121STRAIN, read-out: MIC Escherichia coli BE1121
[6] = system: Escherichia coli K-12 strain; test: MIC for Escherichia coli K-12 strain; conditions: Escherichia coli, K12STRAIN, read-out: MIC Escherichia coli K12
[7] = system: Enterococcus faecalis NCTC12201 strain (vancomycin-resistant Enterococcus: VRE); test: MIC for Enterococcus faecalis NCTC12201 strain (VRE); conditions: read-out: MIC Enterococcus faecalis NCTC 12201 (VRE)
[8] = system: Enterococcus faecalis 5038 strain; test: MIC for Enterococcus faecalis 5038 strain; conditions: read-out: MIC Enterococcus faecalis 5038
[9] = system: Staphylococcus aureus Smith strain; test: MIC for Staphylococcus aureus Smith strain; conditions: read-out: MIC Straphyrococcus aureus Smith
[10] = MRSA No. 17, regular bouillon medium, 37° C. overnight, turbidity
[11] = 209P strain, regular bouillon medium, 37° C. overnight, turbidity
[12] = BE1121 strain, regular bouillon medium, 37° C. overnight, turbidity
[13] = K-12 strain, regular bouillon medium, 37° C. overnight, turbidity
[14] = NCTC12201 strain (VRE), Heart Infusion Broth medium, 37° C. overnight, turbidity
[15] = 5038 strain, Heart Infusion Broth medium, 37° C. overnight, turbidity
[16] = Smith strain, regular bouillon medium, 37° C. overnight, turbidity

Structure (SMILES) | MIC [1] [µg/mL] | MIC [2, 10] [µg/mL] | MIC [3, 11] [µg/mL] | MIC [4] [µg/mL] | MIC [5, 12] [µg/mL] | MIC [6, 13] [µg/mL] | MIC [7, 14] [µg/mL] | MIC [8, 15] [µg/mL] | MIC [9, 16] [µg/mL] | MIC ([2]; MRSA) [µg/mL] | MIC [7] [µg/mL] | MIC [9] [µg/mL] | MIC ([3]; 209P) [µg/mL] | MIC [5] [µg/mL] | MIC [6] [µg/mL] | MIC ([8]; 5038STRAIN) [µg/mL]
CCCCCCCCCCOCC(O)=C1C(=O)N(C(=O)Nc2ccc(F)cc2)c2ccccc21 [A041, N-(4-fluorophenylaminocarbonyl)-3-decyloxyacetyl-2-oxyindole] | 0.5 (≈ 1.07 µM) | 256 (≈ 546 µM) | 256 (≈ 546 µM) | 8 (≈ 17.1 µM) | 256 (≈ 546 µM) | 128 (≈ 273 µM) | 4 (≈ 8.54 µM) | 2 (≈ 4.27 µM) | 4 (≈ 8.54 µM) | – | – | – | – | – | – | –
CCCCCCCCCC(O)=C1C(=O)N(C(=O)Nc2ccc(F)cc2)c2ccccc21 [A042, N-(4-fluorophenylaminocarbonyl)-3-decanoyl-2-oxyindole] | < 0.125 | 256 (≈ 603 µM) | 256 (≈ 603 µM) | 1 (≈ 2.36 µM) | 256 (≈ 603 µM) | 256 (≈ 603 µM) | 4 (≈ 9.42 µM) | 2 (≈ 4.71 µM) | 0.5 (≈ 1.18 µM) | – | – | – | – | – | – | –
CCCCC1CCC(C(O)=C2C(=O)N(C(=O)Nc3ccc(F)cc3)c3ccccc32)CC1 (stereo not drawn) [A043, N-(4-fluorophenylaminocarbonyl)-3-(4-butylcyclohexylcarbonyl)-2-oxyindole] | 1 (≈ 2.29 µM) | 128 (≈ 293 µM) | 256 (≈ 586 µM) | 4 (≈ 9.16 µM) | 256 (≈ 586 µM) | 256 (≈ 586 µM) | 1 (≈ 2.29 µM) | 1 (≈ 2.29 µM) | 1 (≈ 2.29 µM) | – | – | – | – | – | – | –
CCCCCCCCCC(O)=C1C(=O)N(C(=O)Nc2ccccc2)c2ccc(F)cc21 [A044, N-(phenylaminocarbonyl)-3-decanoyl-5-fluoro-2-oxyindole] | < 0.125 | 256 (≈ 603 µM) | 256 (≈ 603 µM) | < 0.125 | 256 (≈ 603 µM) | 256 (≈ 603 µM) | 0.5 (≈ 1.18 µM) | 1 (≈ 2.36 µM) | 0.25 (≈ 0.589 µM) | – | – | – | – | – | – | –
CCCCCCCCCCOCC(O)=C1C(=O)N(C(=O)Nc2ccc(OC)cc2)c2ccccc21 [A045, N-(4-methoxyphenylaminocarbonyl)-3-decyloxyacetyl-2-oxyindole] | 0.5 (≈ 1.04 µM) | 256 (≈ 533 µM) | 256 (≈ 533 µM) | 8 (≈ 16.6 µM) | 128 (≈ 266 µM) | 128 (≈ 266 µM) | 64 (≈ 133 µM) | 4 (≈ 8.32 µM) | 128 (≈ 266 µM) | – | – | – | – | – | – | –
CCCCCCCCCC(O)=C1C(=O)N(C(=O)Nc2ccc(OC)cc2)c2ccccc21 [A046, N-(4-methoxyphenylaminocarbonyl)-3-decanoyl-2-oxyindole] | 1 (≈ 2.29 µM) | 256 (≈ 586 µM) | 256 (≈ 586 µM) | 8 (≈ 18.3 µM) | 256 (≈ 586 µM) | 256 (≈ 586 µM) | 256 (≈ 586 µM) | 256 (≈ 586 µM) | 256 (≈ 586 µM) | – | – | – | – | – | – | –
CCCCCCCCCCOCC(O)=C1C(=O)N(C(=O)Nc2ccc(OC)cc2)c2ccc(F)cc21 [A047, N-(4-methoxyphenylaminocarbonyl)-3-decyloxyacetyl-5-fluoro-2-oxyindole] | 1 (≈ 2.01 µM) | 128 (≈ 257 µM) | 128 (≈ 257 µM) | 0.25 (≈ 0.501 µM) | 128 (≈ 257 µM) | 128 (≈ 257 µM) | 16 (≈ 32.1 µM) | 4 (≈ 8.02 µM) | 8 (≈ 16 µM) | – | – | – | – | – | – | –
CCCCCCCCCC(O)=C1C(=O)N(C(=O)Nc2ccc(OC)cc2)c2ccc(F)cc21 [A048, N-(4-methoxyphenylaminocarbonyl)-3-decanoyl-5-fluoro-2-oxyindole] | 32 (≈ 70.4 µM) | – | 256 (≈ 563 µM) | 256 (≈ 563 µM) | 256 (≈ 563 µM) | 256 (≈ 563 µM) | – | 128 (≈ 282 µM) | – | 256 (≈ 563 µM) | 256 (≈ 563 µM) | 256 (≈ 563 µM) | – | – | – | –
CCCCCCCCCC(=O)N1C(=O)/C(=C(\O)COC)c2ccccc21 [A049, N-decanoyl-3-methoxyacetyl-2-oxyindole] | 0.5 (≈ 1.39 µM) | 256 (≈ 712 µM) | 256 (≈ 712 µM) | 0.5 (≈ 1.39 µM) | 128 (≈ 356 µM) | 256 (≈ 712 µM) | 0.5 (≈ 1.39 µM) | 0.5 (≈ 1.39 µM) | 1 (≈ 2.78 µM) | – | – | – | – | – | – | –
CCCCCCCCCC(=O)N1C(=O)/C(=C(\O)COC)c2cc(F)ccc21 [A050, N-decanoyl-3-methoxyacetyl-5-fluoro-2-oxyindole] | 0.25 (≈ 0.662 µM) | 256 (≈ 678 µM) | 256 (≈ 678 µM) | 0.5 (≈ 1.32 µM) | 128 (≈ 339 µM) | 256 (≈ 678 µM) | 0.5 (≈ 1.32 µM) | 0.5 (≈ 1.32 µM) | 0.5 (≈ 1.32 µM) | – | – | – | – | – | – | –
CCCCCCCCCC(=O)N1C(=O)/C(=C(/C)O)c2cc(F)ccc21 [A051, N-decanoyl-3-acetyl-5-fluoro-2-oxyindole] | 1 (≈ 2.88 µM) | 4 (≈ 11.5 µM) | – | 8 (≈ 23 µM) | – | – | 0.25 (≈ 0.72 µM) | 0.5 (≈ 1.44 µM) | 0.5 (≈ 1.44 µM) | – | – | – | 4 (≈ 11.5 µM) | 2 (≈ 5.76 µM) | 56 (≈ 161 µM) | –
CCCCCCCCCC(=O)N1C(=O)/C(=C(\O)c2ccccc2)c2cc(F)ccc21 [A052, N-decanoyl-3-benzoyl-5-fluoro-2-oxyindole] | 0.5 (≈ 1.22 µM) | – | 64 (≈ 156 µM) | 0.5 (≈ 1.22 µM) | 128 (≈ 313 µM) | 256 (≈ 625 µM) | – | – | – | 64 (≈ 156 µM) | 0.5 (≈ 1.22 µM) | 0.5 (≈ 1.22 µM) | – | – | – | 0.25 (≈ 0.61 µM)
CCCCCCCCCC(O)=C1C(=O)N(C(=O)Nc2ccc(OC(F)(F)F)cc2)c2ccccc21 [A053, N-(4-(trifluoromethoxy)phenylaminocarbonyl)-3-decanoyl-2-oxyindole] | 16 (≈ 32.6 µM) | 256 (≈ 522 µM) | 256 (≈ 522 µM) | 32 (≈ 65.2 µM) | 128 (≈ 261 µM) | 128 (≈ 261 µM) | 128 (≈ 261 µM) | 128 (≈ 261 µM) | 256 (≈ 522 µM) | – | – | – | – | – | – | –
CCCCCCCCCC(O)=C1C(=O)N(C(=O)Nc2ccccc2C(F)(F)F)c2ccccc21 [A054, N-(2-(trifluoromethyl)phenylaminocarbonyl)-3-decanoyl-2-oxyindole] | < 0.125 | 2 (≈ 4.21 µM) | 2 (≈ 4.21 µM) | < 0.125 | 256 (≈ 539 µM) | 256 (≈ 539 µM) | 1 (≈ 2.11 µM) | 1 (≈ 2.11 µM) | 0.5 (≈ 1.05 µM) | – | – | – | – | – | – | –
